Data published in publication PMC10072326, “Promising anticancer agents based on 8-hydroxyquinoline hydrazone copper(II) complexes” (Frontiers in Chemistry, 2023).
In brackets after ≈: the same amount, converted by molar mass.

Legend:
[1] = Cu(II) complex formation and stability constants by UV-Vis spectrophotometric titrations; format: physicochemical; conditions: for pCu (= −log[Cu(II)]): pH 7.4, c Cu(II) = 1 μM, computed from stability constants
Experimental: The complex formation processes of L^1, L^5 and L^6 with Cu(II) ions were studied by UV-Vis spectrophotometry in 30% (v/v) DMSO/H2O using relatively low concentrations (c L = 50–60 μM), due to the limited water solubility of the ligand precursors as well as of the Cu(II) complexes (see thermodynamic solubility data in aqueous media in Table 2 and Table 3). L^1 was selected as the simplest compound of the studied ligand series, whereas L^5 and L^6 were selected to compare with the oxidovanadium(IV) system ([Ribeiro et al., 2022]). The solution stability and stoichiometry of the Cu(II) complexes were determined by the evaluation of the UV-Vis spectra recorded at various pH values (representative spectra are shown for the Cu(II) ‒ L^1 and Cu(II) ‒ L^6 systems in Figures 3A,B and for Cu(II) ‒ L^5 in Supplementary Figure S10A). The computed overall stability constants and pK a values of the complexes are collected in Table 3. The formation of only mono-ligand complexes was found with [Cu(LH)]^+, [Cu(L)], and [Cu(LH‒1)]^‒ (and [Cu(LH‒2)]^2‒ in the case of L^6) compositions, and their computed molar absorbance spectra are shown in Figures 3C, D, Supplementary Figure S10B.
An Agilent Cary 8454 diode array spectrophotometer was used to record the UV-Vis spectra in the range of 200–800 nm. Titrations were carried out with a Metrohm 665 Dosimat burette and an Orion 710A pH-meter equipped with a Metrohm combined electrode. A ionic strength of 0.10 M (KCl) was used to keep the activity coefficients constant. The titrations were performed with 0.10 M carbonate-free KOH solution in a 30% (v/v) DMSO/H2O solvent mixture. […] The average water ionization constant (pKw) is 14.53 ± 0.05 in the 30% (v/v) DMSO/H2O solvent mixture. The pKa values of the ligand precursors and the logβ values for the Cu(II) complexes were determined in 30% (v/v) DMSO/H2O in the same way as it was done in our previous publications (9, 11).
Spectrophotometric titrations were carried out on samples containing the ligands at 50 μM concentration, in the pH range from 2.0 to 11.5 in the absence or the presence of 1, 0.5 or 0.25 equiv. Cu(II) ions, using 10 cm^3 sample volumes. Proton dissociation constants (pKa) of the ligand precursors as well as stoichiometry and stability constants of the Cu(II) complexes (β) were calculated by the computer program PSEQUAD (12). The usual definition of overall (β) and stepwise (K) formation constants is used: […]

[2] = molecular target: bovine serum albumin (BSA) (Bos taurus, UniProt P02769); experiment: BSA fluorescence quenching; format: binding; set-up: Affinity constant K ± SD: unit not given here; conditions: fluorescence quenching; HypSpec2014; 1:1 species assumed
Experimental: To evaluate the interaction of the compounds, both organic and Cu(II) complexes, with bovine serum albumin (BSA) fluorescence spectra were measured. In a typical fluorescence experiment, to a solution of 1.5 μM of BSA in the same buffer, successive aliquots of a stock solution of each compound in DMSO were added directly to the cuvette (optical path 1.0 cm). The fluorescence emission was recorded between 310 and 600 nm with excitation at 295 nm. The final DMSO % was kept below 2% (v/v). The Stern-Volmer plots were built using the emission at 340 nm and blank samples (in the absence of BSA) with the same concentration of the complexes were recorded and subsequently subtracted from the corresponding emission spectra containing the fluorophore. Moreover, the fluorescence emission intensity was corrected for reabsorption and inner filter effects using UV-Vis absorption data recorded for each sample, since all complexes absorb in the measured wavelength range (19, 20).
The interaction of the organic compounds and Cu(II) complexes with BSA was monitored by studying the quenching of albumin’s fluorescence emission with increasing concentrations of the complexes (25). Overall, the intensity of the Trp emission decreases with the addition of the complexes, except for 8 (see Figs. S19). The Stern-Volmer relationship was used to analyse the fluorescence quenching process:
where I0 and I are the fluorescence intensities in the absence and in the presence of quencher, kq is the bimolecular quenching rate, τ0 is the fluorophore lifetime in the absence of the quencher (6.22 ns) (26) and [Q] is the quencher concentration. […] This linear relationship is obeyed for all complexes except 5, where a downward curvature is observed. This can be an indication of two distinct binding sites, corresponding to two populations of fluorophores, one being accessible and other inaccessible or buried inside the protein. In such cases, the Stern-Volmer relation can be modified to (27):
where ΔI = I0 – I, Ka is the Stern-Volmer constant for the accessible fraction and fa is the fraction of accessible fluorophore. […] As first approximation, the total concentration of quencher was used to check the quenching mechanism. […] As all systems presented high absorbance values in the measured range of wavelengths, no excess of quencher was used and, therefore, 1:1 species will be assumed for these interactions.

A-375 cells = experiment: Sulforhodamine B (SRB) cell viability assay; format: cell-based; conditions: Homo sapiens, 72 h
Experimental: (§1) Copper compounds were tested, along with the free ligands and cisplatin as the positive control, for their cytotoxicity on both melanoma (A-375) and lung adenocarcinoma (A-549) cell lines in the concentration range 0.78–50 μM. Following 72 h of incubation, cell viability was measured via sulforhodamine B (SRB) assay (Supplementary Figure S25).
(§2) A-375 cells (ATCC, CRL-3222) were grown in Dulbecco’s Modified Eagle Medium with high glucose (Gibco #11965118) and A-549 (ATCC, CCL-185) cells were grown in Dulbecco’s Modified Eagle Medium F-12 (Gibco #11320033), supplemented with 10% FBS (Gibco, #10500064) and Penicillin-Streptomycin (10,000 U/mL, Gibco, #15140122). Cells were incubated at 37 °C, 5% CO2 incubator and subcultured every 3 days.
(§3) All the tested complexes were dissolved in DMSO (10 mM stock solution), and aliquots were stored at -20 °C, thawed on the experiment day and used only once. For SRB cell viability assay, A-375 and A-549 cells were seeded on 96-well plates (4×10^3 cells/well) and treated with serial dilutions of indicated compounds (with a concentration range of 0-50 μM, 72 h). Trichloroacetic acid (TCA) was added to wells for fixation at a final concentration of 10%, for 1 h at 4 °C. Each well was washed five times with ddH2O, dried, and incubated with 0.4% (w/v) SRB dye (50 µL/well) for 30 min at room temperature. The wells were washed with 1% acetic acid (v/v) five times, and 150 µL of 10 mM Tris solution was added to dissolve the stain. Colorimetric measurements were taken at λ = 564 nm. Viability percentage was calculated as follows: % Cell Viability = [100 × (sample Abs.-blank) / (non-treated control Abs.-blank)].

A-549 cells = experiment: Sulforhodamine B (SRB) cell viability assay; format: cell-based; conditions: Homo sapiens, A549, 72 h
Experimental: as §1, §2, §3

[3] = set-up: method as in Ribeiro et al., 2022; conditions: 30% (v/v) DMSO/H2O; t = 25.0°C; I = 0.1 M (KCl); ref Ribeiro et al., 2022; cited from earlier work
[4] = set-up: method as in Ribeiro et al., 2022; conditions: ligand precursors; pH 7.4; ref Ribeiro et al., 2022; cited from earlier work
[5] = Cu(II) complex of the ligand, 30% (v/v) DMSO/H2O, t = 25.0°C, I = 0.10 M (KCl)
[6] = proton dissociation of the Cu(II) complex, 30% (v/v) DMSO/H2O

bovine serum albumin (BSA), sequence (P02769 25-607): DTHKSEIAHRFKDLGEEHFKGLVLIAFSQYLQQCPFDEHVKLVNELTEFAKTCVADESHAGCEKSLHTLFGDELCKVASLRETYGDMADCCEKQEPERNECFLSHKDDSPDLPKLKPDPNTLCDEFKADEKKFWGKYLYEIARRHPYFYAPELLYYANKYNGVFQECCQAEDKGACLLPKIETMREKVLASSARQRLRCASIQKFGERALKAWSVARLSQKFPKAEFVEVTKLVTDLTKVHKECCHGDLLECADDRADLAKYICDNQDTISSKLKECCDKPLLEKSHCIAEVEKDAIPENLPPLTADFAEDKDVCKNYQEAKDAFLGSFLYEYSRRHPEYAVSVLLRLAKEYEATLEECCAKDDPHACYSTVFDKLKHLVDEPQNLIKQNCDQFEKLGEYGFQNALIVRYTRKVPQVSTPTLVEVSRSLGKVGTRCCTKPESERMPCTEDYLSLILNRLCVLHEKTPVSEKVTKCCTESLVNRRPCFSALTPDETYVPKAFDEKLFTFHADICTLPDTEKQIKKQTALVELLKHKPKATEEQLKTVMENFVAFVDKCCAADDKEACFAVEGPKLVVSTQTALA

With O=C(N/N=C/c1ccc2cccc(O)c2n1)c1ccccc1 [L^1] as the compound, how does the “logβ [Cu(L)]” value [1, 5] read?
Its value is 17.79 ± 0.02.

And the “logβ [Cu(LH)]^+” value [1, 5]?
The value was 23.41 ± 0.02.

And the “logβ [Cu(LH‒1)]^‒” value [1, 5]?
The value was 7.39 ± 0.03.

What about the “pCu (= −log[Cu(II)])” value ([1]; c L = 1 μM) of the same compound?
Its value is 8.96.

And the “pCu (= −log[Cu(II)])” value ([1]; c L = 10 μM)?
The value was 12.59.

What about the “pK a [Cu(L)]” value [1, 6] of the same compound?
The value was 10.40.

And the “pK a [Cu(LH)]^+” value [1, 6]?
Its value is 5.62.

And the “Affinity constant K ± SD” value [2]?
The value was “(4.6 ± 0.2) × 10^5”.

And the IC50 (A-375 cells)?
Its IC50 is 12.3 ± 0.5 µM.

And the IC50 (A-549 cells)?
Its IC50 is greater than 50 µM.

What about the “pK a1” value [3] of the same compound?
Its value is 2.24.

And the “pK a2” value [3]?
The value was 9.51.

What about the “pK a3” value [3] of the same compound?
Its value is 11.45.

What about the “thermodynamic solubility S 7.4” value [4] of the same compound?
The value was 3.7 µM (≈ 1.08 µg/mL).
